# Experimental data as given in patent US11186587B2, “Compound as ACC inhibitor and use thereof” (NANJING SANHOME PHARMACEUTICAL CO., LTD., priority 2017, dated 2021).
# Where two headings read alike, the source gives them in different places.
# Experiments:
# [1] = Evaluation of compound distribution in rat liver; type: in vivo; settings: male SD rats, single oral 3 mg/kg, 0.25 h after administration
# Method: An acclimation period of 2-3 days was given before the experiments. The rats were fasted for 8-12 h before administration, supplied with water 2 h after administration and foods 4 h after administration.
# 6 mg of the test compound (based on free base) was weighed and added to 20 mL of ethanol-PEG400-saline (10:30:60). The mixture was vortexed for 2 min, and sonicated for 3 min, and then used to prepare a solution of test sample solution with a concentration of 0.3 mg/mL for oral administration. 100 μL of the test sample solution was volumed to 10 ng/mL with methanol, and a control sample of the same concentration was prepared. The concentrations of the test sample and control sample were detected by HPLC, and the accuracy was calculated.
# SD rats were given a single oral administration of 3 mg/kg of test compound at a dose of 10 mL/kg. The rats were bled in femoral artery and ruptured in neck 0.25 h after administration. The liver and blood samples (anticoagulation with heparin sodium) were collected immediately, and placed on ice.
# The homogenate was centrifuged (centrifugation conditions: 8000 rpm/min, 5 min, 4° C.). The supernatant was transferred and subjected to cryopreservation. The supernatant was thawed and centrifuged before injection, and the supernatant was collected and subjected to LC-MS/MS for analyzing the content of the compound in the supernatant sample.
# The collected whole blood sample was placed on ice and centrifuged within 30 min (centrifugation conditions: 8000 rpm/min, 5 min, 4° C.). 100 μL of the upper layer of plasma was transferred, and precipitated with 300 μL of methanol. The mixture was shaken and centrifuged, and diluted with mobile phase. The supernatant was collected and subjected to LC-MS/MS for analyzing the content of the compound in the supernatant sample.
# [2] = tested on: Col1A1 gene expression in TGF-β1-induced LX-2 cells; test: Inhibition of human hepatic stellate cells LX-2 activation in vitro (Col1A1 gene expression, real-time PCR); type: cell-based; settings: TGFβ1 10 ng/mL, 24 h drug treatment, compound concentration of the tabulated value not stated (30, 10, 3 μM prepared)
# Method: The compounds of the present disclosure prepared in the above examples and the control compound were respectively formulated into 60 mM with DMSO for use.
# DMSO stock solution of the compounds of the examples of the present disclosure and the control compound were sequentially diluted with culture medium to 30 μM, 10 μM, and 3 μM. TGF-β1 was dissolved to […] with 10 mM citric acid buffer in the kit (PeproTech) according to the instructions, ready for use.
# LX-2 cells were inoculated into a 6-well culture plate at a density of 2×10^5 cells/mL after cell passage. Each well contained 2 mL DMEM with 10% FBS. The cells were cultured at 37° C. in a 5% CO2 incubator, which was recorded as Day 1. After 24 h (Day 2), the cell confluence reached 70-80%, the old culture medium was discarded, and the serum-free DMEM was used to treat the cells as low serum starvation. The old culture medium was discarded at Day 3, and the culture medium or the culture medium containing different concentrations of the drug was added for continuing culture. There were control group (serum-free DMEM culture medium), TGFβ1 group, TGFβ1+ compound group. The TGFβ1 working concentration was 10 ng/mL. 24 h after the drug treatment (Day 4), the cell medium was discarded and the cells were washed once with precooled 1×PBS and then subjected to total RNA extraction.
# 2.3.1 Sample pretreatment: 1 mL of TransZOL Up reagent was added to each well of the 6-well plate, and the well plate was placed horizontally for a while to let the lysis buffer evenly spread on the cell surface and lyse the cells. The cells were blown with a pipette to make the cells completely detached. The lysate was transferred to a 2 mL RNase free centrifuge tube and repeatedly blown and sucked until no significant pieces in the lysate.
# The extracted RNA was diluted to a concentration of 0.1 μg-0.5 μg (Total RNA ≤1 μg) based on the same mass. The total RNA in the reverse transcription system of each sample in the experiment was about 500 ng.
# Two replicates were set for each sample, and the relative expression of the target gene was calculated by the program in the PCR machine.
# The threshold of the Real Time PCR result was automatically set by the Real Time PCR detector system. The relative expression of the Col1A1 gene was calculated as follows. ΔCt (Col1A1 in drug treatment group)=Avg. Ct (Col1A1 in drug treatment group)−Avg. Ct (GAPDH in drug treatment group) ΔCt (Col1A1 in TGF group)=Avg. Ct (Col1A1 in TGF group)−Avg. Ct (GAPDH in TGF group) ΔCt (Col1A1 in Control group)=Avg. Ct (Col1A1 in Control group)−Avg. Ct (GAPDH in Control group) ΔΔCt=Average value of ΔCt (Col1A1 in TGF group/drug treatment group)−ΔCt (Col1A1 in Control group)
# Formula for calculating the relative expression of Col1A1 gene: RQ=^2−ΔΔCt
# Relative quantification results were obtained by automatically analysis of ABI 7500 real-time quantitative PCR machine.
compound,measurement,setting,value
"COc1ccccc1[C@H](Cn1c(=O)n(C(C)(C)C(=O)O)c(=O)c2c(C)c(-c3ncco3)sc21)OC1CCOCC1 [ND-630, 2-[1-[2-(2-methoxyphenyl)-2-(oxecyclo-4-yloxy)ethyl]-5-methyl-6-(1,3-oxazol-2-yl)-2,4-dioxo-1H,2H,3H,4H-thieno[2,3-d]pyrimidin-3-yl]-2-methylpropanoic acid, reference compound]",concentration at 0.25 h,"[1]; liver, read-out: Concentration in Liver",6070 ng/g
same,Kp at 0.25 h,"[1]; liver/plasma, read-out: Liver/plasma distribution ratio",41.8
same,concentration at 0.25 h,"[1]; plasma, read-out: Concentration in Plasma",145 ng/mL
same,Inhibition rate (%) of relative expression of the Col1A1 gene,[2],42.06%
